Tests used:
TIPARP GST-(TEV) = TIPARP GST-(TEV) (Homo sapiens (Human), UniProt Q7Z3E1); assay: TR-FRET binding assay, TIPARP; conditions: for IC50: TR-FRET, Probe 1, 2 hours incubation; for PARP1/TIPARP IC50 Ratio: ratio of PARP1 GST IC50 to TIPARP GST-(TEV) IC50
Excerpt: The full-length cDNA encoding the human TIPARP (NP_001171647.1, UniProtKB-Q7Z3E1) of 657 amino acids was the template to generate the expression construct. […] The TIPARP fusion protein includes GST, glutathione S-transferase, a 26 kDa protein whose DNA sequence is frequently integrated into expression vectors for production of recombinant proteins. A […], was cloned into vector pFastBacTM 1 (Thermo Fisher Scientific) with an N-terminal GST tag followed by a TEV protease site to produce the TIPARP fusion protein, TIPARP GST-(TEV). TR-FRET assays were used to measure the binding of compounds to TIPARP and PARP1, and to characterize biochemical selectivity. Compound stock solutions (10 mM) were serially diluted in 3-fold increments in dimethyl sulfoxide (DMSO). Diluted compounds were dispensed (30 nL) into white ProxiPlate-384-well plates (PerkinElmer, Waltham, MA, USA) using an ECHO® 550 acoustic Labcyte dispenser (Beckman-Coulter Life Sciences, Indianapolis, IN, USA) to achieve a final starting concentration of 30 μM to 0.5 nM in the assay. This was followed by addition of 5 μL of 2× protein/probe mix (Table 2) made in assay buffer (Tris-HCl 50 mM pH 8.0; 5 mM MgCl2; 5 μM ZnCl2; 1 mM DTT (dithiothreitol); 0.15% BSA (bovine serum albumin) (w/v); and 0.01% TritonX-100 (w/v)) at final concentrations listed in Table 2. Subsequently, 5 μL of 2× antibody (Tb-labeled anti-GST antibody, Thermo Fisher Scientific, Waltham, MA, USA) in HEPES buffered saline was added to each well at a final concentration of 1 nM. The samples were then incubated for 2 hours under ambient conditions. Fluorescence was measured and TR-FR ET ratios were determined on an EnVision multimode plate reader (PerkinElmer) using a 520 nanometer (nm) excitation wavelength and collecting fluorescence emission at 495 nm. […] [table]

PARP1 GST = PARP1 GST (Homo sapiens (Human), UniProt P09874); assay: TR-FRET binding assay, PARP1; conditions: Probe 2, 2 hours incubation
Protocol: TR-FRET assays were used to measure the binding of compounds to TIPARP and PARP1, and to characterize biochemical selectivity. Compound stock solutions (10 mM) were serially diluted in 3-fold increments in dimethyl sulfoxide (DMSO). Diluted compounds were dispensed (30 nL) into white ProxiPlate-384-well plates (PerkinElmer, Waltham, MA, USA) using an ECHO® 550 acoustic Labcyte dispenser (Beckman-Coulter Life Sciences, Indianapolis, IN, USA) to achieve a final starting concentration of 30 μM to 0.5 nM in the assay. This was followed by addition of 5 μL of 2× protein/probe mix (Table 2) made in assay buffer (Tris-HCl 50 mM pH 8.0; 5 mM MgCl2; 5 μM ZnCl2; 1 mM DTT (dithiothreitol); 0.15% BSA (bovine serum albumin) (w/v); and 0.01% TritonX-100 (w/v)) at final concentrations listed in Table 2. Subsequently, 5 μL of 2× antibody (Tb-labeled anti-GST antibody, Thermo Fisher Scientific, Waltham, MA, USA) in HEPES buffered saline was added to each well at a final concentration of 1 nM. The samples were then incubated for 2 hours under ambient conditions. Fluorescence was measured and TR-FR ET ratios were determined on an EnVision multimode plate reader (PerkinElmer) using a 520 nanometer (nm) excitation wavelength and collecting fluorescence emission at 495 nm.

NCI-H1373 cells = assay: NCI-H1373 CellTiter-Glo cell assay for TIPARP inhibition; assay type: cell-based, human; conditions: Homo sapiens, NCI-H1373, 144 h; 6 days, 100 nM 10-Cl-BBQ in medium; read-out: NCI-H1373 CTG EC50
Protocol: The NCI-H1373 CellTiter-Glo® assay was used to determine cell numbers after TIPARP inhibition-induced cell cycle arrest, and enabled screening of compounds for cellular TIPARP inhibition potency.
Compound stock solutions (10 mM) were serially diluted in 3-fold increments in dimethyl sulfoxide. Sample aliquots (120 nL) were dispensed into Corning® 384-well Flat Clear Bottom White Polystyrene TC-treated Microplates (Corning Life Sciences, Corning, NY, USA) using an ECHO® 550 acoustic Labcyte dispenser (Beckman-Coulter Life Sciences, Indianapolis, IN, USA) to achieve final concentrations between 30 μM and 0.5 nM in the assay. This was followed by the addition of 40 μL of 1000 NCI-H1373 cells (ATCC®, Manassas, VA, USA) in complete growth medium RPMI 1640 growth medium (Thermo Fisher Scientific, Waltham, MA, USA) supplemented with 20 mg/L L-glutamate, 25 mM HEPES (4-(2-hydroxyethyl)-1-piperazineethanesulfonic acid), 10% (v/v) heat inactivated FBS (fetal bovine serum), 1% (w/v) penicillin-streptomycin, and 100 nM 10-Cl-BBQ (10-chloro-7H-benzimidazo[2,1-a]benz[de]isoquinolin-7-one, (Tocris, Minneapolis, MN, USA). Duplicate cell plates with 40 μL cells/well along with various concentrations of compounds were kept in Nunc™ Square BioAssay Dishes (Thermo Fisher Scientific) at 98% relative humidity in a 5% C02 incubator at 37° C. for 6 days. On day 7, plates were moved to ambient lab conditions for 10 minutes until the temperature equilibrated. Following equilibration, CellTiter-Glo® Luminescent Cell Viability Assay reagent (Promega™, Madison, WI, USA) was added (15 μL) to each well of the plates. After a 20 minutes incubation, luminescence was detected using a ViewLux™ microplate imager (PerkinElmer, Waltham, MA, USA). Data analysis was performed using GraphPad Prism (Dotmatics, Boston, MA, USA).

DLD-1 parent cells = assay: CellTiter-Glo DLD-1 parent cell assay; assay type: cell-based; conditions: Homo sapiens, 144 h, 6 days, read-out: DLD-1 CTG EC50
Excerpt: (§1) The DLD-1 BRCA2 (−/−) CellTiter-Glo® assay measured the synthetic lethality of PARP1/2 inhibitors and was used as a surrogate to allow measurement of activity of both PARP1 and PARP2 in cells. If PARP1 and PARP2 are inhibited and are trapped onto chromatin during DNA replication, there is replication fork stalling and accumulation of double strand breaks. In BR CA wild-type cells, the resulting double strand DNA breaks are repaired via homologous recombination. In cells with mutation of BRCA1 or BRCA2, homologous recombination repair of DNA double strand breaks is defective, and cell death occurs after PARP1/2 inhibitor treatment (Lord C J, Ashworth A. PARP inhibitors: synthetic lethality in the clinic. Science. 2017 Mar. 17; 355(6330):1152-1158). Testing compounds in viability assays with the DLD-1-BR CA 2 (−/−) and DLD-1 parent cell enabled assessment on PARP1/2-dependent (cytotoxicity in the BRCA2 (−/−) cells only) vs. non-selective cytotoxicity in both cell lines.
(§2) Compound stock solutions (10 mM) were serially diluted in 3-fold increments in dimethyl sulfoxide (DMSO). Sample aliquots (120 nL) were dispensed into Corning® 384-well Flat Clear Bottom White Polystyrene TC-treated Microplates (Corning Life Sciences, Corning, NY, USA) using an ECHO® 550 acoustic Labcyte dispenser (Beckman-Coulter Life Sciences, Indianapolis, IN, USA) to achieve concentrations between 30 μM and 0.5 nM in the assay. In the assay, 40 μL of 500 DLD-1 parent cells (HORIZON® Therapeutics, Deerfield, IL, USA) or 40 μL of 1200 DLD-1-BRCA2 (−/−) cells (HORIZON Therapeutics) in complete growth medium containing RPMI 1640 growth medium (ThermoFisher Scientific, Waltham, MA, USA) supplemented with 20 mg/L L-glutamate, 25 mM HEPES (4-(2-hydroxyethyl)-1-piperazineethanesulfonic acid), 10% (v/v) heat inactivated FBS (fetal bovine serum), and 1% (w/v) Penicillin-Streptomycin were added.
(§3) Duplicate cell plates with 40 μL cells/well along with various concentrations of compounds were kept in Nunc™ Square BioAssay Dishes (Thermo Fisher Scientific) at 98% relative humidity in a 5% CO2 incubator at 37° C. for 6 days. On day 7, plates were moved to ambient lab conditions for 10 minutes until the temperature equilibrated. Following equilibration, CellTiter-Glo® Luminescent Cell Viability Assay reagent (Promega™, Madison, WI, USA) was added (15 μL) to each well of the plates. After a 20 minutes incubation, luminescence was detected using a ViewLux™ microplate imager (PerkinElmer, Waltham, MA, USA). Data analysis was performed using GraphPad Prism (Dotmatics, Boston, MA, USA).

DLD-1 BRCA2 (−/−) cells = assay: CellTiter-Glo DLD-1 BRCA2 (−/−) cell assay for PARP1/2 inhibition; assay type: cell-based; conditions: Homo sapiens, 144 h, 6 days, read-out: DLD-1 BRCA2 (−/−) CTG EC50
Excerpt: as §1, §2, §3

Sequence of PARP1 GST (P09874 whole entry): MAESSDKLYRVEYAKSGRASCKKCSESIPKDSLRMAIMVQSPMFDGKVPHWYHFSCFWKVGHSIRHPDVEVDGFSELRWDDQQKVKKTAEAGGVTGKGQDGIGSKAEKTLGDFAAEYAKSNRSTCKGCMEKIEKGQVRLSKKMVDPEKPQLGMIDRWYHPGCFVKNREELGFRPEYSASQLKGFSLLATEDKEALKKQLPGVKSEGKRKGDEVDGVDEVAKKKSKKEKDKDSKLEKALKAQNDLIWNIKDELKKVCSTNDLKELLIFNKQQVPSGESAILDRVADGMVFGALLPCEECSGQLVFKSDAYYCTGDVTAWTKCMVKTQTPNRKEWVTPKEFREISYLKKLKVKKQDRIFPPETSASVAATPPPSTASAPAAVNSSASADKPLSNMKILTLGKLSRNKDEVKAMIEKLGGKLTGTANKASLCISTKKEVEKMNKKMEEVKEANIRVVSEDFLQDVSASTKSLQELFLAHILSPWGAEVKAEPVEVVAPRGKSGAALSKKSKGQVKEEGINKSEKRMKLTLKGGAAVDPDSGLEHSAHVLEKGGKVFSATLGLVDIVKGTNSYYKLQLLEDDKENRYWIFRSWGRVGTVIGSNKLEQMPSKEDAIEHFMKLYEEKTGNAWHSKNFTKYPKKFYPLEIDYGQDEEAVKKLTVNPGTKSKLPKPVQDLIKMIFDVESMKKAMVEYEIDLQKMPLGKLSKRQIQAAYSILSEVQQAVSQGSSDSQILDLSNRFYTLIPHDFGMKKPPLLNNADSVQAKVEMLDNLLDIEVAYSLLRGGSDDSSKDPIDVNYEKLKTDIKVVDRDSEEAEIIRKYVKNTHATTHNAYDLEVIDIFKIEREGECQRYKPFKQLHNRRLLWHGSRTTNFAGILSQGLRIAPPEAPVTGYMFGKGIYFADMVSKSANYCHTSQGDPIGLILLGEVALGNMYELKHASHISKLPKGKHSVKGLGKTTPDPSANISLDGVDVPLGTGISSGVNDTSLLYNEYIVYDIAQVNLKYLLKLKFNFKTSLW
Sequence of TIPARP GST-(TEV) (Q7Z3E1 441-657): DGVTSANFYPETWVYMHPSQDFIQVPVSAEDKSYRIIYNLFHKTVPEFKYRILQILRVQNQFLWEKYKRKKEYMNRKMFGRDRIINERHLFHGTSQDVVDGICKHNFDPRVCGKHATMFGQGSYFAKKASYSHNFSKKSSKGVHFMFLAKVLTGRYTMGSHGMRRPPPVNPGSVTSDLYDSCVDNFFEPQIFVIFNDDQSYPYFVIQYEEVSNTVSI

Structure (SMILES)	IC50 (TIPARP GST-(TEV))	PARP1/TIPARP IC50 Ratio (TIPARP GST-(TEV))	IC50 (PARP1 GST)	EC50 (NCI-H1373 cells)	EC50 (DLD-1 parent cells)	EC50 (DLD-1 BRCA2 (−/−) cells)
C[C@@H]1CN(c2ncc(C(F)(F)F)cn2)C[C@H](C)N1C(=O)[C@H]1C[C@@H](c2c[nH]c(=O)c(C(F)(F)F)c2)C1 [Example 2, 5-[(1s,3s)-3-{(2R,6S)-2,6-dimethyl-4-[5-(trifluoromethyl)pyrimidin-2-yl]piperazine-1-carbonyl}cyclobutyl]-3-(trifluoromethyl)pyridin-2(1H)-one]	3.75 nM	1340	5020 nM	32.2 nM	22100 nM	16500 nM
C[C@@H]1CN(C(=O)[C@H]2C[C@@H](c3c[nH]c(=O)c(C(F)(F)F)c3)C2)CCN1c1ncc(C(F)(F)F)cn1 [Example 3, 5-[(1S,3s)-3-{(3R)-3-methyl-4-[5-(trifluoromethyl)pyrimidin-2-yl]piperazine-1-carbonyl}cyclobutyl]-3-(trifluoromethyl)pyridin-2(1H)-one]	4.74 nM	106	504 nM	9.65 nM	> 30000 nM	5030 nM
C[C@@H]1CN(C(=O)[C@H]2C[C@@H](c3c[nH]c(=O)c(C(F)(F)F)c3)C2)C[C@H](C)N1c1ncc(C(F)(F)F)cn1 [Example 4, 5-[(1s,3s)-3-{(3R,5S)-3,5-dimethyl-4-[5-(trifluoromethyl)pyrimidin-2-yl]piperazine-1-carbonyl}cyclobutyl]-3-(trifluoromethyl)pyridin-2(1H)-one]	5.7 nM	547	3120 nM	11.1 nM	23900 nM	7170 nM
C[C@@H]1CN(C(=O)[C@H]2C[C@@H](c3c[nH]c(=O)c(C(F)(F)F)c3)C2)C[C@H](C)N1c1ncc(C(C)(C)O)cn1 [Example 5, 5-[(1s,3s)-3-{(3R,5S)-4-[5-(2-hydroxypropan-2-yl)pyrimidin-2-yl]-3,5-dimethylpiperazine-1-carbonyl}cyclobutyl]-3-(trifluoromethyl)pyridin-2(1H)-one]	2.3 nM	974	2240 nM	34.4 nM	> 30000 nM	20500 nM
C[C@H]1CN(c2ncc(C(F)(F)F)cn2)CCN1C(=O)[C@H]1C[C@@H](c2c[nH]c(=O)c(C(F)(F)F)c2)C1 [Example 6, 5-[(1R,3s)-3-{(2S)-2-methyl-4-[5-(trifluoromethyl)pyrimidin-2-yl]piperazine-1-carbonyl}cyclobutyl]-3-(trifluoromethyl)pyridin-2(1H)-one]	3.43 nM	82.5	283 nM	45.4 nM	14400 nM	1130 nM
C[C@@H]1CN(C(=O)[C@H]2C[C@@H](c3c[nH]c(=O)c(C(F)(F)F)c3)C2)CCN1c1ncc(C(C)(C)O)cn1 [Example 7, 5-[(1S,3s)-3-{(3R)-4-[5-(2-hydroxypropan-2-yl)pyrimidin-2-yl]-3-methylpiperazine-1-carbonyl}cyclobutyl]-3-(trifluoromethyl)pyridin-2(1H)-one]	3.79 nM	417	1580 nM	71.7 nM	> 30000 nM	17200 nM
C[C@H]1CN(C(=O)[C@H]2C[C@@H](c3c[nH]c(=O)c(C(F)(F)F)c3)C2)CCN1c1ncc(C(F)(F)F)cn1 [Example 8, 5-[(1R,3s)-3-{(3S)-3-methyl-4-[5-(trifluoromethyl)pyrimidin-2-yl]piperazine-1-carbonyl}cyclobutyl]-3-(trifluoromethyl)pyridin-2(1H)-one]	8.79 nM	137	1200 nM	55.9 nM	> 30000 nM	5730 nM
C[C@@H]1CN(c2ncc(C(C)(C)O)cn2)CCN1C(=O)[C@H]1C[C@@H](c2c[nH]c(=O)c(C(F)(F)F)c2)C1 [Example 9, 5-[(1S,3s)-3-{(2R)-4-[5-(2-hydroxypropan-2-yl)pyrimidin-2-yl]-2-methylpiperazine-1-carbonyl}cyclobutyl]-3-(trifluoromethyl)pyridin-2(1H)-one]	4.32 nM	1010	4360 nM	67.7 nM	> 30000 nM	> 30000 nM
